Test results as given in patent publication EP4080216A1, “METHODS DETERMINING THE POTENTIAL OF DRUGS FOR TREATING BACTERIAL INFECTIONS AND COMPOSITION FOR TREATING BACTERIAL INFECTIONS” (priority 2021, dated 2022).
“Also recorded” adds a separate entry of the source.

What was measured:
[1] = test system: CD14; assay: bead assay: binding of fluorescent FimH-expressing (ON) bacteria to CD14-coupled magnetic beads, flow cytometry; design: species or system murine
Procedure: In one embodiment, the CD14 protein is a recombinant chimeric protein. In a preferred embodiment, the CD14 protein comprises the murine N-terminal of CD14 which is bound to protein A on the magnetic beads via the Fc tail. In another embodiment, the magnetic beads are pre-coated with protein A. In one preferred embodiment, a fluorescent marker is stably integrated into the DNA of the bacteria. The stable integration of a fluorescent marker into the bacteria DNA is performed by any conventional means known to the skilled person such as by transforming the bacteria with a conditional-replication, integration, and modular (CRIM) plasmid. In another embodiment, the fluorescent marker is transiently integrated into the DNA of the bacteria. The transient integration of a fluorescent marker into the bacteria DNA is performed by any conventional means known to the skilled person such as by transforming the bacteria with a plasmid harbouring the fluorescent marker. In another embodiment, the DNA is visualized by a fluorescent marker added after step f). In a preferred embodiment, the fluorescent marker added after step f) is a fluorescent dye. In the latter embodiment, the fluorescent marker or fluorescent dye is thiazole orange, Hoechst 3342, Hoechst 3358, or carboxyfluorescein diacetate (CFDA) and its derivatives. In one embodiment, the infection causing type I piliated gram-negative bacteria are causing neonatal meningitis. In another embodiment, the infection causing type I piliated gram-negative bacteria are causing inflammatory bowel diseases such as Crohn's disease or ulcerative colitis. In one embodiment, the infection causing type I piliated gram-negative bacteria causes Crohn's disease. In another embodiment, the infection causing type I piliated gram-negative bacteria causes ulcerative colitis. In yet another embodiment, the infection causing type I piliated gram-negative bacteria causes gastrointestinal disorders or gastrointestinal diseases such as salmonellosis. In a preferred embodiment, the infection causing type I piliated gram-negative bacteria cause urinary tract infections. In a particularly preferred embodiment, the type I piliated gram-negative bacteria causing urinary tract infections are uropathogenic E. coli. In one embodiment, the incubation of the type I piliated gram-negative bacteria with the CD14-coupled magnetic beads and the added drug or compound lasts between ten minutes and six hours. In one embodiment, the incubation takes between 30 minutes and three hours. In a particularly preferred embodiment, the incubation takes between 45 and 90 minutes. In one embodiment, the added drug or compound is an inhibitor, antibody or antibiotic. […]

[2] = test system: Hox8b-derived murine dendritic cells; assay: adhesion assay: adhesion of dendritic cells infected with type I piliated (ON) bacteria, Hoechst fluorescence plate reader and brightfield images; assay type: cell-based; settings: ON bacteria at multiplicity of infection of 10, 18 to 20 hours post infection
Procedure: In one embodiment, the dendritic cells are dendritic cells from any mammalian species such as human, primate, mouse, cow, pig, dog, goat, rabbit, rat and cow. In one embodiment, the dendritic cells are human or murine dendritic cells. In another embodiment, the dendritic cells are established dendritic cell lines. In another embodiment, the dendritic cells are human dendritic cell lines such as Thp-1, HL-60, MUTZ-3, U937, KG-1 and PDMC05. In one embodiment, the dendritic cells are cultured in regular cell culture dishes or cell culture plates known to the skilled person in the art. In another embodiment, the cell culture dishes or cell culture plates are treated with different extracellular matrix components such as fibronectin or fibrinogen or combinations thereof. In another embodiment, genetically modified dendritic cells are used. In a preferred embodiment, the genetically modified dendritic cells express a fluorescent marker. In a particularly preferred embodiment, the genetically modified dendritic cells have a fluorescently labelled actin cytoskeleton. In a particularly preferred embodiment, the genetically modified dendritic cells express LifeAct®-GFP and therefore, have a fluorescently labelled actin cytoskeleton. In one embodiment, the dendritic cells are infected with the bacteria at a multiplicity of infection of 1-100 (1-100 bacteria per 1 dendritic cell). The skilled person is aware that infected dendritic cells are activated dendritic cells. In another embodiment, the dendritic cells are infected with the bacteria at a multiplicity of infection of 1-30 (1-30 bacteria per 1 dendritic cell). In a particularly preferred embodiment, the dendritic cells are infected with the bacteria at a multiplicity of infection of 10 (10 bacteria per 1 dendritic cell). In one embodiment, the infection causing type I piliated gram-negative bacteria are causing neonatal meningitis. In another embodiment, the infection causing type I piliated gram-negative bacteria are causing inflammatory bowel diseases such as Crohn's disease or ulcerative colitis. In one embodiment, the infection causing type I piliated gram-negative bacteria causes Crohn's disease. In another embodiment, the infection causing type I piliated gram-negative bacteria causes ulcerative colitis. In yet another embodiment, the infection causing type I piliated gram-negative bacteria causes gastrointestinal disorders or gastrointestinal diseases such as salmonellosis. In a preferred embodiment, the infection causing type I piliated gram-negative bacteria cause urinary tract infections. In a particularly preferred embodiment, the type I piliated gram-negative bacteria causing urinary tract infections are uropathogenic E. coli. […]

## Cc1c2c(c(O)c3c(O)cccc13)C(=O)[C@]1(O)C(=O)C(C(N)=O)=C(O)[C@@H](N(C)C)[C@@H]1C2 [anhydrotetracycline]
[1]; sub-minimal inhibitory concentrations, ON bacteria
  prevent binding of ON bacteria to CD14-coupled beads: not able to prevent binding
[2]; concentration not given
  adhesion of dendritic cells: increased adhesion even further; also recorded: significantly increased adhesion

## D-mannose
[1]; 175 µM, UPEC ON bacteria, one hour at 4 °C
  block binding of ON bacteria to CD14: not sufficient to block binding
[1]; 1 mM, UPEC ON bacteria, one hour at 4 °C
  inhibit binding of ON bacteria to CD14-coupled beads: prevented binding; also recorded: able to inhibit binding
[2]; 175 µM
  adhesion of dendritic cells: did not decrease adhesion
[2]; 1 mM
  adhesion of dendritic cells: resulted in decreased adhesion; also recorded: partially able to do so

## CNC(=O)c1cc(C(=O)NC)cc(-c2ccc(O[C@H]3O[C@H](CO)[C@@H](O)[C@H](O)[C@@H]3O)c(C)c2)c1 [M4284]
[1]; 10 µM, UPEC ON bacteria, one hour at 4 °C
  inhibit binding of ON bacteria to CD14-coupled beads: prevented binding; also recorded: able to inhibit binding
[2]; 10 µM
  adhesion of dendritic cells: resulted in decreased adhesion; also recorded: partially able to do so
